Experiments:
[1] = target: T1, Bcl-2-like protein 1 (Homo sapiens, UniProt Q07817); assay: Displacement of Bad-derived peptide from Bcl-xL by fluorescence polarization assay
[2] = target: Apoptosis regulator Bcl-2 (Homo sapiens, UniProt P10415); assay: Displacement of Bax-derived peptide from Bcl2 by fluorescence polarization assay
[3] = target: T1, Bcl-2-like protein 1; assay: Displacement of Bad-derived peptide from Bcl-xL by FPA in presence of 10% human serum
[4] = test system: FL5.12; assay: Reversal of cytokine withdrawal protection in IL3 dependent Bcl-xL overexpressing mouse FL5.12 cells in presence of 3% FBS; format: functional
[5] = Reversal of cytokine withdrawal protection in IL3 dependent Bcl-xL overexpressing mouse FL5.12 cells

Chain of Apoptosis regulator Bcl-2 (P10415 whole entry): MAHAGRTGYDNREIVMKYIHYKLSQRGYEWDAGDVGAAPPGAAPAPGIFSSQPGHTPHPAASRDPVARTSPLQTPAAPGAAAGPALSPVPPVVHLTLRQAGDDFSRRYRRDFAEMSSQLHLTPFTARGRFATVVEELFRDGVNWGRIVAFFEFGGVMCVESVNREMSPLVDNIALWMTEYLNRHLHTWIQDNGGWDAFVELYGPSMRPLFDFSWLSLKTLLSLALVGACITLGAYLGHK
T1 sequence (Q07817 whole entry): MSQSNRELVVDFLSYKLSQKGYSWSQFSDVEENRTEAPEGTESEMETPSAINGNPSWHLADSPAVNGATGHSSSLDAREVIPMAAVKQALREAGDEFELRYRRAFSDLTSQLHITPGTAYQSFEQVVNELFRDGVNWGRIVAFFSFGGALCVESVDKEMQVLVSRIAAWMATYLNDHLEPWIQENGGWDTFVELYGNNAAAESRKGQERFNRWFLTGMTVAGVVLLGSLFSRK

Row | SMILES | Ki [1] [µM] | Ki [2] [µM] | IC50 [3] [µM] | EC50 [4] [µM] | IC50 [1] [µM] | EC50 [5] [µM]
1 | CN(C)CC[C@H](CSc1ccccc1)Nc1ccc(S(=O)(=O)NC(=O)c2ccc(N3CCN(Cc4ccccc4-c4ccc(F)cc4)CC3)cc2)cc1[N+](=O)[O-] | < 0.0005 | < 0.001 | < 0.06 | 0.71 | – | –
2 | COc1ccc(-c2ccccc2CN2CCN(c3ccc(C(=O)NS(=O)(=O)c4ccc(N[C@H](CCN(C)C)CSc5ccccc5)c([N+](=O)[O-])c4)cc3)CC2)cc1 | < 0.0005 | < 0.001 | < 0.06 | 0.7 | – | –
3 | CN(C)CC[C@H](CSc1ccccc1)Nc1ccc(S(=O)(=O)NC(=O)c2ccc(N3CCN(Cc4ccccc4-c4ccccc4Cl)CC3)cc2)cc1[N+](=O)[O-] | < 0.0005 | < 0.001 | < 0.06 | 2.5 | – | –
4 | COc1cccc(-c2ccccc2CN2CCN(c3ccc(C(=O)NS(=O)(=O)c4ccc(N[C@H](CCN(C)C)CSc5ccccc5)c([N+](=O)[O-])c4)cc3)CC2)c1 | < 0.0005 | < 0.001 | 0.178 | 4.5 | – | –
5 | CN(C)CC[C@H](CSc1ccccc1)Nc1ccc(S(=O)(=O)NC(=O)c2ccc(N3CCN(Cc4ccccc4-c4ccc(S(C)(=O)=O)cc4)CC3)cc2)cc1[N+](=O)[O-] | – | < 0.001 | < 0.06 | 6.7 | 0.0091 | –
6 | CN(C)CC[C@H](CSc1ccccc1)Nc1ccc(S(=O)(=O)NC(=O)c2ccc(N3CCC(C)(C)CC3)cc2)cc1[N+](=O)[O-] | – | – | 0.36 | 5.1 | – | 0.47
7 | CN(C)CC[C@H](CSc1ccccc1)Nc1ccc(S(=O)(=O)NC(=O)c2ccc(N3CCN(Cc4ccccc4-c4ccc(C(F)(F)F)cc4)CC3)cc2)cc1[N+](=O)[O-] | < 0.0005 | < 0.001 | < 0.06 | 0.12 | – | –

— ChEMBL document CHEMBL1141382, “Studies leading to potent, dual inhibitors of Bcl-2 and Bcl-xL” (J Med Chem, 2007)
